From ChEMBL document CHEMBL1201862, “PubChem BioAssay data set” (2004)
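Exposure lasted 48 hours, with cells grown in 96-well plates and compounds tested at five concentrations. GI50: concentration for 50% inhibition of growth.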 Calls of active or inactive are those of the source. No stated cut-off is given here; in the data, active = GI50 up to about 1.1 µM and inactive = higher.

Assays:
Test in all cases: inhibition of tumour cell growth, NCI panel, 48 h
786-0 = tested on: 786-0
A549 = tested on: A549
CCRF-CEM = tested on: CCRF-CEM
HT-29 = tested on: HT-29
M14 = tested on: M14
MDA-MB-435 = tested on: MDA-MB-435
NCI-H226 = tested on: NCI-H226
NCI/ADR-RES = tested on: NCI/ADR-RES
RXF 393 = tested on: RXF 393
SF-295 = tested on: SF-295
SF-539 = tested on: SF-539
SNB-19 = tested on: SNB-19
SNB-75 = tested on: SNB-75
SR = tested on: SR
SW-620 = tested on: SW-620
T47D = tested on: T47D
UO-31 = tested on: UO-31
SK-MEL-28 = tested on: SK-MEL-28
U-251 = tested on: U-251

Measured: GI50

NC(=O)Cc1ncn(-c2ccccc2)n1
inactive: 786-0 > 100 µM | A549 > 100 µM | CCRF-CEM > 100 µM | HT-29 > 100 µM | M14 > 100 µM | MDA-MB-435 > 100 µM | NCI-H226 > 100 µM | NCI/ADR-RES > 100 µM | RXF 393 > 100 µM | SF-295 > 100 µM | SF-539 > 100 µM | SNB-19 > 100 µM | SNB-75 > 100 µM | SR > 100 µM | SW-620 > 100 µM | T47D > 100 µM | UO-31 > 100 µM

CC(=O)NC1C(OCc2ccccc2)OC(CO)C(O)C1OCC(=O)NC(C)C(=O)NC(CCC(=O)NCCCCNc1ccc([N+](=O)[O-])c2[nH]c3ccccc3c(=O)c12)C(N)=O (stereo unspecified)
inactive: 786-0 42.9 µM | A549 50.1 µM | HT-29 69.3 µM | M14 71.1 µM | MDA-MB-435 > 100 µM | NCI-H226 66.1 µM | NCI/ADR-RES > 100 µM | SF-295 34.6 µM | SF-539 49.3 µM | SK-MEL-28 > 100 µM | SNB-19 36.7 µM | SNB-75 43.9 µM | SR 2.87 µM | SW-620 > 100 µM | T47D > 100 µM | U-251 79.1 µM | UO-31 > 100 µM

CCOC(=O)n1[nH]c(=O)n(-c2ccccc2)c1=O
inactive: 786-0 > 100 µM | A549 > 100 µM | CCRF-CEM > 100 µM | HT-29 > 100 µM | M14 > 100 µM | MDA-MB-435 > 100 µM | NCI-H226 > 100 µM | NCI/ADR-RES > 100 µM | RXF 393 > 100 µM | SF-295 > 100 µM | SK-MEL-28 > 100 µM | SNB-19 > 100 µM | SNB-75 > 100 µM | SR > 100 µM | SW-620 > 100 µM | T47D > 100 µM | U-251 > 100 µM | UO-31 > 100 µM

COC(=O)C1CCC(=O)N1C(c1ccc2c(c1)OCO2)c1ccc2c(c1)OCO2 (stereo unspecified)
inactive: 786-0 > 100 µM | A549 > 100 µM | CCRF-CEM > 100 µM | HT-29 > 100 µM | M14 > 100 µM | MDA-MB-435 > 100 µM | NCI-H226 > 100 µM | NCI/ADR-RES > 100 µM | SF-295 > 100 µM | SF-539 > 100 µM | SK-MEL-28 > 100 µM | SNB-19 > 100 µM | SNB-75 > 100 µM | SR > 100 µM | SW-620 > 100 µM | T47D > 100 µM | U-251 > 100 µM | UO-31 51.9 µM

Cc1nc(O)c2ncn(CCO)c2n1
inactive: 786-0 > 100 µM | A549 > 100 µM | CCRF-CEM > 100 µM | HT-29 > 100 µM | M14 > 100 µM | MDA-MB-435 > 100 µM | NCI-H226 > 100 µM | NCI/ADR-RES > 100 µM | RXF 393 > 100 µM | SF-295 > 100 µM | SF-539 > 100 µM | SK-MEL-28 > 100 µM | SNB-19 > 100 µM | SNB-75 > 100 µM | SR > 100 µM | SW-620 > 100 µM | T47D > 100 µM | U-251 > 100 µM

O=c1c2c([N+](=O)[O-])cccc2nc2[nH]c3ccccc3n12
inactive: 786-0 29.1 µM | A549 40.3 µM | CCRF-CEM > 75 µM | HT-29 63.2 µM | M14 > 75 µM | MDA-MB-435 > 75 µM | NCI-H226 22.3 µM | NCI/ADR-RES 26.4 µM | RXF 393 13.8 µM | SF-295 23.1 µM | SF-539 13.3 µM | SK-MEL-28 > 75 µM | SNB-19 30.9 µM | SR 54.2 µM | SW-620 > 75 µM | T47D 15 µM | U-251 20.2 µM

c1ccc(C2=C(c3ccccc3)P(c3ccccc3)C2)cc1 (stereo unspecified)
inactive: 786-0 > 100 µM | A549 43.4 µM | CCRF-CEM 22.5 µM | HT-29 > 100 µM | M14 > 100 µM | MDA-MB-435 57.4 µM | NCI-H226 53.2 µM | NCI/ADR-RES 40.1 µM | RXF 393 > 100 µM | SF-295 41 µM | SF-539 > 100 µM | SK-MEL-28 > 100 µM | SNB-75 32.7 µM | SR 22.8 µM | SW-620 64 µM | T47D > 100 µM | U-251 68.1 µM

CCOc1ccccc1N1CSc2nnc(-c3ccccc3)n2C1
inactive: 786-0 > 100 µM | A549 > 100 µM | CCRF-CEM 20 µM | HT-29 73.3 µM | M14 > 100 µM | MDA-MB-435 > 100 µM | NCI-H226 > 100 µM | NCI/ADR-RES > 100 µM | RXF 393 > 100 µM | SF-295 > 100 µM | SF-539 > 100 µM | SK-MEL-28 > 100 µM | SR 44.4 µM | SW-620 49 µM | T47D > 100 µM | U-251 > 100 µM | UO-31 > 100 µM

CC(=O)Nn1c(=S)[nH]c2ccccc21
inactive: 786-0 > 100 µM | A549 > 100 µM | CCRF-CEM > 100 µM | HT-29 > 100 µM | M14 > 100 µM | MDA-MB-435 > 100 µM | NCI-H226 > 100 µM | NCI/ADR-RES > 100 µM | RXF 393 > 100 µM | SF-295 > 100 µM | SK-MEL-28 > 100 µM | SNB-19 > 100 µM | SR > 100 µM | SW-620 > 100 µM | T47D > 100 µM | U-251 > 100 µM | UO-31 > 100 µM

Cc1onc(-c2c(F)cccc2Cl)c1C(=O)N[C@@H]1C(=O)N2[C@@H]1SC(C)(C)[C@@H]2C(=O)O
inactive: 786-0 > 100 µM | A549 > 100 µM | HT-29 > 100 µM | M14 > 100 µM | MDA-MB-435 > 100 µM | NCI-H226 > 100 µM | NCI/ADR-RES > 100 µM | RXF 393 > 100 µM | SF-295 > 100 µM | SF-539 > 100 µM | SK-MEL-28 > 100 µM | SNB-19 > 100 µM | SNB-75 > 100 µM | SR > 100 µM | SW-620 > 100 µM | T47D > 100 µM | U-251 > 100 µM | UO-31 24.5 µM

Cc1cn([C@H]2C=C[C@@H](CO)O2)c(=O)[nH]c1=O [STAVUDINE]
inactive: 786-0 652 µM | A549 > 1000 µM | CCRF-CEM 469 µM | HT-29 > 1000 µM | M14 > 1000 µM | MDA-MB-435 > 1000 µM | NCI-H226 > 1000 µM | NCI/ADR-RES 678 µM | SF-295 > 1000 µM | SF-539 881 µM | SNB-19 > 1000 µM | SNB-75 796 µM | SR 780 µM | SW-620 418 µM | T47D 473 µM | U-251 > 1000 µM | UO-31 490 µM
